In patent publication US8629144B2, “Polymorphic and hydrate forms, salts and process for preparing 6-{difluoro[6-(1-methyl-1H-pyrazol-4-yl)[1,2,4]triazolo[4,3-b]pyridazin-3-yl]methyl}quinoline” (Janssen Pharmaceutica NV, priority 2007, dated 2014):
≈ marks a conversion by molar mass, not a printed value. Read-outs that look alike come from different tables or passages of the source.

Tests used:
[1] = rat, in vivo, po
Method: (§1) Five male SD rats (225±11 g) were used per salt form. From each rat a complete plasma concentration time profile was obtained. Tap water and food were available ad libitum. The test involved salts of compound (I) with HBr, HCl, methanesulphonic acid (mesylate), ethanesulphonic acid (esylate) or p-toluenesulphonic acid (tosylate). The individual salts were dispersed in a 0.5% methocel suspension to a final concentration of 1 mg base eq./ml. The formulations were stored at room temperature.
(§2) Administration was oral by gastric intubation: 10 ml/kg to obtain a dose of 10 mg base eq./kg.
(§3) Blood samples were collected 30 min, 1, 2, 4, 7 and 24 h after dose administration.
(§4) Blood was collected by multiple sampling from a tail vein into Multivette® 600 K3E tubes (Sarstedt). Samples were placed immediately on melting ice and plasma was obtained following centrifugation at 4° C. for 10 minutes at approximately 1900×g. All samples were shielded from daylight and stored at ≦−18° C. prior to analysis.
(§5) A limited pharmacokinetic analysis was performed using WinNonlin™ Professional (Version 5.1). A non-compartmental analysis using the lin/log trapezoidal rule with lin/log interpolation was used for all data.

[2] = Water adsorption (hygroscopicity) of salts of compound (I); type: physicochemical; conditions: for Water adsorbed: dried 1 h at 25° C. under dry nitrogen flow
Method: Free base of compound (I) (3 g; 7.95 mmol) was dissolved in absolute ethanol (40 mL) and heated to 78° C. An acid (HCl 6M in 2-propanol, 2.0 ml (12 mmol); HBr 48% in water, 0.98 mL (8.75 mmol); methane sulphonic acid, 917 mg (9.54 mmol); ethane sulphonic acid, 1.05 g (9.54 mmol) or p-toluene sulphonic acid monohydrate (1.66 g (8.75 mmol)) was added to the hot reaction mixture. The reaction mixture was allowed to cool to room temperature. The resulting precipitate was filtered off, washed with ethanol and dried under vacuum at 60° C.
The obtained solids were analysed by acid titration, Karl-Fisher titration and HPLC. A physical characterisation was performed (DSC, TGA, XRD and IR, DVS).

[3] = Water solubility of salts of compound (I); type: physicochemical; conditions: 24 hours at 20° C.; for Measured pH: saturated solution in water; for Solubility: water, UV spectrometry
Method: An excess of different salts of compound (I) was agitated with water during 24 hours at 20° C. Following filtration, the concentration of compound (I) in the solution was determined by UV spectrometry.

[4] = Absorption and plasma kinetics after oral administration of salts to rat; conditions: male SD rats, oral 10 mg base eq./kg
Method: as §1, §2, §3, §4, §5

[5] = Thermal conversions in DSC oven (XRPD); type: physicochemical
Method: Form III or hydrate form were thermally treated in a DSC oven (heating rate 10° C./min) up to selected temperatures (isotherm for 1 min) using an open sample pan. The selected temperatures are for Form III: 110° C. and 170° C.; and for hydrate form: 70° C., 110° C. and 170° C. The polymorphic composition of the obtained fractions was measured by XRPD. Table 12 summarises XRPD patterns in DSC treated Form III. Table 13 summarises XRPD patterns in DSC treated hydrate

[6] = Slurry conversions on Form III and Form III/hydrate (XRPD); type: physicochemical; parameters: key: Form III; hydrate
Method: 20 mg Form III with 0.25 ml solvent (2-propanol; or 2-propanone/water (8/2, v/v); or methanol/water (8/2, v/v)) was deposited in a vial. For each solvent, 3 vials were prepared and stored each at different temperatures (4° C., RT, 40° C.) for two days. After storage, the slurry was spread on a paper filter, the solid fractions were collected and dried 2 hours at RT. In a further experiment, the Form III was seeded with the hydrate using methanol/water (8/2, v/v) as the solvent. The polymorphic composition was measured using XRPD.

[7] = Aqueous solubility of Forms I, III and hydrate at different pH; type: physicochemical
Method: Solubility of polymorph Forms I and III and the hydrate form of the compound of formula (I) was tested in aqueous conditions at different pH values.

With `CCS(=O)(=O)O.Cn1cc(-c2ccc3nnc(C(F)(F)c4ccc5ncccc5c4)n3n2)cn1` [esylate salt] the Tmax [1] was 1.6 ± 0.5 h, the “t1/2 (4-24 h)” value [1] was 3.3 ± 0.4 h and the Hygroscopicity [2] was “hygroscopic”. The Water adsorbed ([2]; at high relative humidity) was “up to 34%”, the “Measured pH” value [3] was “pH = 2.1” and the Solubility [3] was 0.025 g/100 ml H2O.
In the case of `CS(=O)(=O)O.Cn1cc(-c2ccc3nnc(C(F)(F)c4ccc5ncccc5c4)n3n2)cn1` [mesylate salt], the Tmax [1] is reported as 1.2 ± 0.4 h, the “t1/2 (4-24 h)” value [1] is reported as 3.7 ± 0.6 h and the Hygroscopicity [2] is reported as “hygroscopic”. The Water adsorbed ([2]; at high relative humidity) was “up to 4.5%”, the “Measured pH” value [3] was “pH = 1.9” and the Solubility [3] was 0.047 g/100 ml H2O.
In the case of `Cc1ccc(S(=O)(=O)O)cc1.Cn1cc(-c2ccc3nnc(C(F)(F)c4ccc5ncccc5c4)n3n2)cn1` [tosylate salt], the “Plasma concentration, Mean ± SD” value ([4]; 0.5 hours, 0.5% methocel suspension (LLOQ given in ng/ml)) is reported as 2193 ± 1031, the “Plasma concentration, Mean ± SD” value ([4]; 1 hour) is reported as 2998 ± 1349 and the “Plasma concentration, Mean ± SD” value ([4]; 2 hours) is reported as 3274 ± 995. For the same molecule, the “Plasma concentration, Mean ± SD” value ([4]; 4 hours) was 2512 ± 960, the “Plasma concentration, Mean ± SD” value ([4]; 7 hours) was 1625 ± 537 and the “Plasma concentration, Mean ± SD” value ([4]; 24 hours) was 47.9 ± 24.0. For the same molecule, the AUC0-24 h ([4]; Mean ± SD) was 24307 ± 7457 ng·h/mL, the AUC0-inf ([4]; Mean ± SD) was 24558 ± 7503 ng·h/mL and the Cmax ([4]; Mean ± SD) was 3380 ± 944 ng/mL. The Tmax ([4]; Mean ± SD) was 2.0 ± 1.2 h, the “t1/2 (4-24 h)” value ([4]; Mean ± SD) was 3.4 ± 0.6 h and the Hygroscopicity [2] was “non-hygroscopic”. For the same molecule, the Water adsorbed ([2]; depending on the atmospheric humidity) was “up to 0.2%”, the “Measured pH” value [3] was “pH = 2.1” and the Solubility [3] was 0.023 g/100 ml H2O.
In the case of `Cn1cc(-c2ccc3nnc(C(F)(F)c4ccc5ncccc5c4)n3n2)cn1` [Form III, 6-{difluoro[6-(1-methyl-1H-pyrazol-4-yl)[1,2,4]triazolo[4,3-b]pyridazin-3-yl]methyl}quinoline], the XRPD measured composition ([5]; DSC treated Form III, up to 110° C.) is reported as “Form III”, the XRPD measured composition ([5]; DSC treated Form III, up to 170° C.) is reported as “Form I” and the XRPD measured composition ([5]; starting Form III) is reported as “Form III”. The “Polymorphic composition (XRPD) after slurry” value (“Polymorphic composition (XRPD)” below) ([6]; 2-propanol, 4° C., two days) was “III”, the “Polymorphic composition (XRPD)” value ([6]; 2-propanol, 40° C., two days) was “III” and the “Polymorphic composition (XRPD)” value ([6]; 2-propanol, RT, two days) was “III”. For the same molecule, the “Polymorphic composition (XRPD)” value ([6]; 2-propanone/water (8/2, v/v), 4° C., two days) was “hy”, the “Polymorphic composition (XRPD)” value ([6]; 2-propanone/water (8/2, v/v), 40° C., two days) was “hy” and the “Polymorphic composition (XRPD)” value ([6]; 2-propanone/water (8/2, v/v), RT, two days) was “hy”. The “Polymorphic composition (XRPD)” value ([6]; methanol/water (8/2, v/v) containing hydrate seeds, 4° C.) was “III”, the “Polymorphic composition (XRPD)” value ([6]; methanol/water (8/2, v/v) containing hydrate seeds, 40° C.) was “III” and the “Polymorphic composition (XRPD)” value ([6]; methanol/water (8/2, v/v) containing hydrate seeds, RT) was “III”. The “Polymorphic composition (XRPD)” value ([6]; methanol/water (8/2, v/v), 4° C., two days) was “III”, the “Polymorphic composition (XRPD)” value ([6]; methanol/water (8/2, v/v), 40° C., two days) was “III” and the “Polymorphic composition (XRPD)” value ([6]; methanol/water (8/2, v/v), RT, two days) was “III”. The Solubility ([7]; 0.01 HCl) was 78 µg/mL (≈ 207 µM), the Solubility ([7]; 0.1 HCl) was 970 µg/mL (≈ 2570 µM) and the Solubility ([7]; pH2) was 130 µg/mL (≈ 345 µM). For the same molecule, the Solubility ([7]; pH4) was 3 µg/mL (≈ 7.95 µM), the Solubility ([7]; pH6) was 1 µg/mL (≈ 2.65 µM) and the Solubility ([7]; pH8) was 1 µg/mL (≈ 2.65 µM). The Solubility ([7]; pH10) was 2 µg/mL (≈ 5.3 µM).
